Test results from article PMC12463534, “Exploring the Anticancer Properties of 4-Phenylthiazole-Based Ru(II) and Os(II) Metallacycles Featuring 1-Methylimidazole as N-Donor Functionality” (Bioinorganic Chemistry and Applications, 2025).

Experiments:
[1] = tested on: SW480 cancer cells; assay: Cellular accumulation (ICP-MS) in SW480 cells; conditions: 50 μM, 0.5% DMF in MEM, SW480, exposure time 2 h
Method: As the coordinated p-cym and leaving groups are present in all synthesized complexes, we focused on the differently substituted 4-phenylthiazoles for estimated changes in lipophilicity.
Cellular accumulation of the compounds was studied based on a method described previously with modifications. 1.8 × 10^5 SW480 cells per well were seeded in aliquots of 1 mL of complete MEM (see above) into 12-well plates (CytoOne, tissue culture treated, Starlab) and incubated at 37°C for 24 h. Then, cells were exposed for 2 h at 37°C to 50 μM solutions of the test compounds (containing 0.5% DMF) in fresh 0.5 mL of complete MEM upon exchange of the medium. Afterward, cells were washed three times with 1 mL PBS per well, lysed with 0.4 mL sub-boiled HNO3 per well for 1 h at room temperature, and 0.3 mL of each sample was diluted with 7.7 mL Milli-Q water. Adsorption/desorption controls were prepared in the same manner in cell-free wells. Ruthenium content was quantified by ICP-MS using an ICP-quadrupole MS Agilent 7800 instrument (Agilent Technologies, Waldbronn, Germany) as described previously.

[2] = Conditional stability constant of Ru-MeIm bond and speciation modelling (pH-dependent UV-vis, HypSpec); format: physicochemical
Method: Calculation was done with HypSpec software based on the pH-dependent UV–vis spectra recorded after 3 days (Figures S27, S28). With the help of the computed constant, it was possible to model the speciation at various concentrations. […] At pH 6.0, a condition more characteristic of solid tumor tissues, the MeIm ligand tends to dissociate to a greater extent and only 44% and 76% of the original complex is found in solution at 0.1 and 1 μM concentrations, respectively.
The average water ionization constant, pKw, was determined as 13.76 ± 0.01, which is in good agreement with literature data. The initial volume of the samples was 15.0 mL. The complex concentration was 100 or 157 μM at an ionic strength of I = 0.1 M (KCl). Samples were degassed by bubbling purified argon through them for about 10 min prior to the measurements, and the inert gas was also passed over the solutions during the titrations. 0.70-mL batch samples were collected between pH 1 and 11; these samples were kept in dark, and after 2 and 3 days, their pH was remeasured, and the UV–vis spectra were recorded as well. Only small differences were observed between the 2- and 3-day spectra, and always, the 3-day samples were used for further evaluation. The conditional stability constant for 3c was calculated based on the following equilibrium: [RuCym(N,C)(Z)]^(1+n) + MeIm ⇌ [RuCym(N,C) (MeIm)]^+ + Z^n; (Z = Cl^– or H2O; n = −1 or 0). The calculation was done with the HypSpec software. […] The calculated stability constant is a conditional value and applies for I = 0.1 M KCl ionic strength.

[3] = tested on: HCT116 multicellular tumor spheroids (3D); assay: Resazurin assay, HCT116 3D multicellular tumor spheroids; conditions: read-out: IC50 3D; HCT116 3D spheroids, resazurin assay, 96 h exposure
Method: Both models were investigated by the fluorimetric resazurin assay after 96-h exposure.
HCT116 colorectal carcinoma cells (RRID:CVCL_0291 from ATCC) were cultivated in McCoy's 5A medium, supplemented with 10% heat-inactivated fetal bovine serum and 4 mM L-glutamine.
For 2D experiments, HCT116 cells were harvested from culture flasks by trypsinization, seeded in 100-μL aliquots into 96-well microculture plates (CytoOne, TC-treated, from Starlab) in densities of 2 × 10^3 cells per well, and incubated for 24 h prior to exposure to the test compounds. […] Stock solutions of test compounds were prepared in DMF, which were then diluted in McCoy's 5A-supplemented medium (not to exceed a final content of 0.5% v/v of organic solvent in the test plates), and serial dilutions were added in aliquots of 100 μL per well. […] After incubation for 4 h, fluorescence was measured with a microplate reader (Bio-Tek, SynergyHT) at a wavelength of 530 nm, additionally using a reference wavelength of 620 nm.

[4] = tested on: G4 forming sequences (h-Telo, bcl2, hTERT, Kit1, Kit2) and dsDNA; assay: FRET melting assay, G-quadruplex / B-DNA interaction; format: binding, human; conditions: 60 mM potassium cacodylate pH 7.4, 2 h incubation
Method: G4s are DNA secondary motifs that play crucial roles in cancer development. […] The complexes were incubated with different G4 forming sequences: one derived from human telomere-forming (h-Telo) and four corresponding to promoter regions of oncogenes, namely, bcl2, hTERT, Kit1, and Kit2. For comparison, a self-complementary sequence called dsDNA was used to represent B-DNA (Table S2).
FRET experiments were conducted using an Applied Biosystems QuantStudio 6 PCR cycler in a 96-well format equipped with a FAM (6-carboxyfluorescein) filter. Oligonucleotide stock solutions, labelled with FAM and TAMRA (6-carboxytetramethylrhodamine) probes, were diluted to the desired concentration in a 60-mM potassium cacodylate buffer (pH 7.4). To fold the oligonucleotides into their B-DNA or G4 topologies, the solutions were heated to 95°C for 5 min and then allowed to cool slowly to room temperature overnight. The final concentration of the oligonucleotides was 0.2 μM, with a total volume of 30 μL in each well. Metal complexes were dissolved in DMF to prepare 2 mM stock solutions and further diluted with the buffer, where DMF concentration never exceeded 0.05%. Mixtures of oligonucleotides and metal compounds were left at room temperature for 2 h. Data were collected twice, each time in duplicate, over a temperature range of 25°C–95°C, with a ramp of 1°C every 30 s. FAM emission data were normalized from 0 to 1 to compare different datasets. After data normalization, we extrapolated the T1/2 values, i.e., the temperature at which normalized FAM emission is 0.5. The DNA concentration is expressed in strands.

[5] = tested on: SW480 cells; assay: DCFH-DA assay, cellular ROS levels; format: cell-based, human; conditions: 2 h, concentration dependent

## Cc1ccc(C(C)C)cc1.Cn1cc[n+]([Ru-]2[c]3cc(S(C)(=O)=O)ccc3-c3csc[n+]32)c1.O=[N+]([O-])[O-] [Compound 3c, [((3-κN)-1-Methylimidazole)(4-(4-(methylsulfonyl)phenyl)thiazolato-κN,κC2′)(η^6-p-cymene)ruthenium(II)] Nitrate]
[1]
  Cellular accumulation, fg Ru/cell: 4.6 ± 0.6 fg Ru/cell
[2]; I = 0.1 M KCl, 25°C, UV-vis spectra after 3 days, HypSpec
  Conditional stability constant logK′ of Ru(p-cym)-MeIm bond: 8.31 ± 0.03
[2]; pH 6.0, 0.1 μM complex, modelled from logK′
  Original complex found in solution: 44%
[2]; pH 6.0, 1 μM complex, modelled from logK′
  Original complex found in solution: 76%
[2]; pH 7.4, 0.1 μM complex, modelled from logK′
  Intact (nondissociated) complex fraction: 78%
[2]; pH 7.4, 1 μM and 10 μM complex concentrations
  Stability of complex by modelled speciation: stable
[3]
  IC50: 226 ± 36 µM
[4]
  Stabilization of oligonucleotides (G4s or B-DNA): No stabilization
[5]
  Effect on intracellular ROS levels: constantly decrease ROS levels with increasing concentrations
